Data reported in US8680054B2, “Suspension type topical formulations comprising cyclic depsipeptide” (Novartis AG, priority 2011, dated 2014).

Assays:
[1] = Solubility of the compound of formula (II); format: physicochemical
[2] = Stability of the compound of formula (II) in hydrophilic environment; format: physicochemical

With `CC[C@H](C)[C@@H]1NC(=O)[C@H](Cc2ccc(O)cc2)N(C)C(=O)[C@H]([C@@H](C)CC)N2C(=O)[C@H](CC[C@H]2O)NC(=O)[C@H](CC(C)C)NC(=O)[C@@H](NC(=O)[C@H](CCC(N)=O)NC(=O)C(C)C)[C@@H](C)OC1=O` [compound of formula (II)] the “solubility in lipophilic excipients” value ([1]; lipophilic excipients) was “low solubility”, the “solubility in polar organic solvents” value ([1]; polar organic solvents) was “good solubility” and the “solubility in water and aqueous buffers” value ([1]; water and aqueous buffers) was “moderate solubility”. The “stability in the presence of water” value ([2]; presence of water) was “subject to hydrolysis” and the “stability in a hydrophilic environment” value ([2]; water and polar organic solvents/co-solvents) was “tendency to degradeation”.
